Measurements taken from the CheMixHub viscosity set.
± gives the uncertainty stated by the source.

Experiment: xn = mol fraction of the nth substance listed

CC(C)Cc1ccccc1 + COC(=O)c1ccccc1
viscosity [mPa·s], 101 kPa
Conditions	x2 = 0.1256	x2 = 0.2427	x2 = 0.355	x2 = 0.4602	x2 = 0.5572	x2 = 0.6486	x2 = 0.7454	x2 = 0.8333	x2 = 0.9166
303.15 K	0.957 ± 0.012	1.001 ± 0.012	1.057 ± 0.012	1.127 ± 0.013	1.195 ± 0.013	1.274 ± 0.013	1.363 ± 0.014	1.467 ± 0.014	1.555 ± 0.015
313.15 K	0.824 ± 0.012	0.862 ± 0.012	0.908 ± 0.012	0.961 ± 0.012	1.011 ± 0.012	1.075 ± 0.013	1.145 ± 0.013	1.215 ± 0.013	1.288 ± 0.014

CCC(C)CC + COC(C)(C)C
298.15 K, 101.33 kPa
Conditions	viscosity [mPa·s]
x2 = 0.0876	0.2925 ± 0.0031
x2 = 0.1993	0.2945 ± 0.0031
x2 = 0.2983	0.2972 ± 0.0031
x2 = 0.3943	0.3008 ± 0.0032
x2 = 0.5016	0.3049 ± 0.0033
x2 = 0.5934	0.3089 ± 0.0033
x2 = 0.6935	0.3139 ± 0.0034
x2 = 0.7963	0.3199 ± 0.0035
x2 = 0.8984	0.3268 ± 0.0036

CC(C)CN + COCCO
298.15 K, 101 kPa
Conditions	viscosity [mPa·s]
x2 = 0.05	0.614 ± 0.016
x2 = 0.1001	0.666 ± 0.017
x2 = 0.1511	0.719 ± 0.019
x2 = 0.2	0.788 ± 0.02
x2 = 0.2513	0.869 ± 0.022
x2 = 0.2996	0.95 ± 0.024
x2 = 0.3519	1.043 ± 0.027
x2 = 0.4002	1.132 ± 0.029
x2 = 0.4491	1.221 ± 0.031
x2 = 0.4989	1.308 ± 0.034
x2 = 0.5501	1.387 ± 0.036
x2 = 0.6	1.457 ± 0.037
x2 = 0.6521	1.52 ± 0.039
x2 = 0.6999	1.567 ± 0.04
x2 = 0.7502	1.608 ± 0.041
x2 = 0.8	1.632 ± 0.042
x2 = 0.8512	1.643 ± 0.042
x2 = 0.9	1.641 ± 0.042
x2 = 0.9492	1.609 ± 0.041

O=C1CCCN1 + COCCO
298.15 K, 101 kPa
Conditions	viscosity [mPa·s]
x1 = 0.0049	1.544 ± 0.032
x1 = 0.0127	1.567 ± 0.033
x2 = 0.0059	14.01 ± 0.29
x2 = 0.0144	13.59 ± 0.29
x2 = 0.0218	13.27 ± 0.28
x2 = 0.0326	12.77 ± 0.27
x2 = 0.0446	12.37 ± 0.26
x2 = 0.0689	11.33 ± 0.24
x2 = 0.0849	10.74 ± 0.23
x2 = 0.1078	10.07 ± 0.21
x2 = 0.127	9.467 ± 0.2
x2 = 0.1824	8.072 ± 0.17
x2 = 0.2392	6.994 ± 0.15
x2 = 0.2918	6.075 ± 0.13
x2 = 0.3249	5.599 ± 0.12
x2 = 0.3711	5.006 ± 0.11
x2 = 0.4202	4.585 ± 0.096
x2 = 0.5242	3.631 ± 0.076
x2 = 0.5773	3.264 ± 0.068
x2 = 0.6342	2.895 ± 0.061
x2 = 0.6686	2.717 ± 0.057
x2 = 0.7286	2.446 ± 0.051
x2 = 0.7755	2.248 ± 0.047
x2 = 0.8174	2.089 ± 0.044
x2 = 0.8558	1.966 ± 0.041
x2 = 0.9003	1.819 ± 0.038
x2 = 0.9214	1.756 ± 0.037
x2 = 0.9381	1.703 ± 0.036
x2 = 0.9524	1.669 ± 0.035
x2 = 0.9729	1.604 ± 0.033

[Cl-].[Cl-].[Cl-].[Cl-].[Sn+4] + COc1ccccc1
viscosity [mPa·s], 101 kPa
Conditions	x2 = 0.5074	x2 = 0.6728	x2 = 0.782	x2 = 0.8238	x2 = 0.864	x2 = 0.9558
293.15 K	0.932 ± 0.045	0.958 ± 0.046	1.01 ± 0.05	1.04 ± 0.05	1.07 ± 0.05	1.1 ± 0.05
313.15 K	0.724 ± 0.037	0.732 ± 0.037	0.746 ± 0.037	0.765 ± 0.038	0.779 ± 0.039	0.811 ± 0.04

Cc1cc(C)cc(C)c1 + CS(C)=O
viscosity [mPa·s], 101.3 kPa
Conditions	x2 = 0.0996	x2 = 0.1961	x2 = 0.3046	x2 = 0.4024	x2 = 0.5049	x2 = 0.6057	x2 = 0.7047	x2 = 0.8055	x2 = 0.9018
298.15 K	0.699 ± 0.037	0.772 ± 0.04	0.865 ± 0.044	1.018 ± 0.05	1.168 ± 0.057	1.28 ± 0.062	1.367 ± 0.065	1.508 ± 0.071	1.711 ± 0.08
303.15 K	0.654 ± 0.035	0.718 ± 0.037	0.799 ± 0.041	0.901 ± 0.045	1.029 ± 0.051	1.136 ± 0.055	1.241 ± 0.06	1.372 ± 0.066	1.553 ± 0.073
308.15 K	0.616 ± 0.033	0.674 ± 0.035	0.747 ± 0.039	0.831 ± 0.042	0.935 ± 0.047	1.036 ± 0.051	1.135 ± 0.055	1.266 ± 0.061	1.42 ± 0.068

Cc1cc(C)cc(C)c1 + C[N+](=O)[O-]
293.15 K, 101.33 kPa
Conditions	viscosity [mPa·s]
x2 = 0.1192	0.686 ± 0.007
x2 = 0.2065	0.683 ± 0.007
x2 = 0.3019	0.679 ± 0.007
x2 = 0.3858	0.679 ± 0.007
x2 = 0.4761	0.674 ± 0.007
x2 = 0.6061	0.671 ± 0.007
x2 = 0.7112	0.666 ± 0.007
x2 = 0.7985	0.657 ± 0.007
x2 = 0.8912	0.648 ± 0.007
